Results from ChEMBL document CHEMBL5352470, “RS6077 induces mitotic arrest and selectively activates cell death in human cancer cell lines and in a lymphoma tumor in vivo” (Eur J Med Chem, 2023).
Active and inactive are the calls of the source. The rule behind the calls is not given here.

Assays:
[1] = tested on: TERT-RPE1; assay: Induction of cell cycle arrest in human TERT-RPE1 cells assessed as accumulation of cells at G1 phase at 100 nM incubated for 72 hrs by annexin V-FITC and PI staining based flow cytometry analysis; format: functional
[2] = tested on: HeLa; assay: Induction of cell cycle arrest in human HeLa cells assessed as accumulation of cells at G2/M phase at 2500 nM incubated for 72 hrs by annexin V-FITC and PI staining based flow cytometry analysis; format: functional
[3] = Toxicity in human T cells derived from human PBMC assessed as early apoptotic cells at 0.1 uM measured for 72 hrs by annexin V-FITC and PI staining based flow cytometry analysis (reference value: 9.70 to […]); conditions: t-cell
[4] = tested on: HeLa; assay: Induction of cell cycle arrest in human HeLa cells assessed as accumulation of cells at G2/M phase at 100 nM incubated for 72 hrs by annexin V-FITC and PI staining based flow cytometry analysis; format: functional
[5] = tested on: KARPAS-422; assay: Antiproliferative activity against human KARPAS-422 cells assessed as inhibition of cell growth measured for 72 hrs by MTT assay; format: functional, cell-based; conditions: KARPAS-422, 72 h
[6] = tested on: HeLa; assay: Induction of cell cycle arrest in human HeLa cells assessed as accumulation of cells at G1 phase at 100 nM incubated for 72 hrs by annexin V-FITC and PI staining based flow cytometry analysis; format: functional
[7] = Toxicity in human T cells derived from human PBMC assessed as early apoptotic cells at 1 uM measured for 48 hrs by annexin V-FITC and PI staining based flow cytometry analysis (reference value: 6.75 to 8.22 %); conditions: t-cell
[8] = tested on: TERT-RPE1; assay: Induction of cell cycle arrest in human TERT-RPE1 cells assessed as accumulation of cells at G2/M phase at 1000 nM incubated for 72 hrs by annexin V-FITC and PI staining based flow cytometry analysis; format: functional
[9] = Toxicity in human T cells derived from human PBMC assessed as late apoptotic cells at 2.5 uM measured for 48 hrs by annexin V-FITC and PI staining based flow cytometry analysis (reference value: 13.5 to […] %); conditions: t-cell
[10] = tested on: TMD8; assay: Antitumor activity against human TMD8 cells xenografted in NOD/SCID mouse assessed as reduction in tumor volume at 100 mg/kg, po administered for 5 days and measured on day 1; format: functional; conditions: time 1 day
[11] = tested on: TERT-RPE1; assay: Induction of apoptosis in human RPE-1 cells assessed as early apoptotic cells at 100 to 2500 nM measured after 72 hrs by annexin V-FITC and PI staining based flow cytometry analysis; format: functional, cell-based; conditions: dose 100-2500 nM
[12] = tested on: AHH-1; assay: Induction of cell cycle arrest in human AHH-1 cells assessed as accumulation of cells at G2/M phase at 1000 nM incubated for 72 hrs by annexin V-FITC and PI staining based flow cytometry analysis; format: functional
[13] = tested on: HeLa; assay: Induction of cell cycle arrest in human HeLa cells assessed as accumulation of cells at S phase at 1000 nM incubated for 72 hrs by annexin V-FITC and PI staining based flow cytometry analysis; format: functional
[14] = tested on: HeLa; assay: Induction of cell cycle arrest in human HeLa cells assessed as accumulation of cells at G1 phase at 1000 nM incubated for 72 hrs by annexin V-FITC and PI staining based flow cytometry analysis; format: functional
[15] = tested on: TERT-RPE1; assay: Induction of cell cycle arrest in human TERT-RPE1 cells assessed as accumulation of cells at G2/M phase at 2500 nM incubated for 72 hrs by annexin V-FITC and PI staining based flow cytometry analysis; format: functional
[16] = tested on: TERT-RPE1; assay: Induction of cell cycle arrest in human TERT-RPE1 cells assessed as accumulation of cells at G2/M phase at 100 nM incubated for 72 hrs by annexin V-FITC and PI staining based flow cytometry analysis; format: functional
[17] = tested on: AHH-1; assay: Induction of cell cycle arrest in human AHH-1 cells assessed as accumulation of cells at G1 phase at 2500 nM incubated for 72 hrs by annexin V-FITC and PI staining based flow cytometry analysis; format: functional
[18] = Metabolic stability in human liver microsome assessed as half life measured upto 60 mins by LC-MS/MS analysis; format: ADME; conditions: liver microsomes
[19] = tested on: AHH-1; assay: Induction of cell cycle arrest in human AHH-1 cells assessed as accumulation of cells at S phase at 1000 nM incubated for 72 hrs by annexin V-FITC and PI staining based flow cytometry analysis; format: functional
[20] = tested on: MCF7; assay: Antiproliferative activity against human MCF7 cells assessed as inhibition of cell growth measured for 48 hrs by MTT assay; format: functional, cell-based; conditions: MCF7, 48 h
[21] = Selectivity ratio of IC50 for human TERT-RPE1 cells to IC50 for human AHH-1 cells; format: functional
[22] = tested on: AHH-1; assay: Induction of apoptosis in human AHH-1 cells at 100 nM measured after 72 hrs by annexin V-FITC and PI staining based flow cytometry analysis; format: functional
[23] = Toxicity in human T cells derived from human PBMC assessed as late apoptotic cells at 0.1 uM measured for 48 hrs by annexin V-FITC and PI staining based flow cytometry analysis (reference value: 13.5 to […] %); conditions: t-cell
[24] = tested on: AHH-1; assay: Induction of cell cycle arrest in human AHH-1 cells assessed as accumulation of cells at G1 phase at 100 nM incubated for 72 hrs by annexin V-FITC and PI staining based flow cytometry analysis; format: functional
[25] = Metabolic stability in human liver microsome assessed as intrinsic clearance measured upto 60 mins by LC-MS/MS analysis; format: ADME; conditions: liver microsomes, read-out: CLH
[26] = tested on: TMD8; assay: Antitumor activity against human TMD8 cells xenografted in NOD/SCID mouse assessed as reduction in tumor size at 100 mg/kg, po administered for 5 days; format: functional, organism-based; conditions: time 5.0 day
[27] = tested on: TERT-RPE1; assay: Induction of cell cycle arrest in human TERT-RPE1 cells assessed as accumulation of cells at S phase at 1000 nM incubated for 72 hrs by annexin V-FITC and PI staining based flow cytometry analysis; format: functional
[28] = tested on: TMD8; assay: Antitumor activity against human TMD8 cells xenografted in NOD/SCID mouse assessed as reduction in tumor volume at 100 mg/kg, po administered for 5 days and measured on day 9; format: functional; conditions: time 9 day
[29] = tested on: AHH-1; assay: Induction of cell cycle arrest in human AHH-1 cells assessed as accumulation of cells at S phase at 100 nM incubated for 72 hrs by annexin V-FITC and PI staining based flow cytometry analysis; format: functional
[30] = tested on: TERT-RPE1; assay: Induction of cell cycle arrest in human TERT-RPE1 cells assessed as accumulation of cells at S phase at 2500 nM incubated for 72 hrs by annexin V-FITC and PI staining based flow cytometry analysis; format: functional
[31] = tested on: U2932; assay: Antiproliferative activity against human U2932 cells assessed as inhibition of cell growth measured for 72 hrs by MTT assay; format: functional, cell-based; conditions: U2932, 72 h
[32] = Toxicity in human T cells derived from human PBMC assessed as early apoptotic cells at 2.5 uM measured for 72 hrs by annexin V-FITC and PI staining based flow cytometry analysis (reference value: 9.70 to […]); conditions: t-cell
[33] = tested on: TERT-RPE1; assay: Induction of cell cycle arrest in human RPE-1 cells assessed as accumulation of cells at G2 phase incubated for 72 hrs by annexin V-FITC and PI staining based flow cytometry analysis; format: functional
[34] = tested on: HeLa; assay: Antiproliferative activity against human HeLa cells assessed as inhibition of cell growth measured for 48 hrs by MTT assay; format: functional, cell-based

IC50 [5]: 36.3 nM
half-life [18]: 50.5 min
IC50 [20]: 38 nM
microsomal CLint [25]: 28 µL/min/mg
IC50 [34]: 35.8 nM
SMILES: COc1cc(C(=O)c2ccn(-c3ncnc4[nH]ccc34)c2)cc(OC)c1OC
Activity [1]: 13.9%
Activity [2]: 34.4%
Activity [3]: 9.7%
Activity [4]: 28.3%
Activity [6]: 28.5%
Activity [7]: 6.49%
Activity [8]: 82.7%
Activity [9]: 12.2%
Activity [10]: 252 mm3
Activity [11]: Active
Activity [12]: 70.8%
Activity [13]: 44.1%
Activity [14]: 22.2%
Activity [15]: 72.7%
Activity [16]: 83%
Activity [17]: 9.8%
Activity [19]: 18.4%
Ratio IC50 [21]: 6.2
Activity [22]: 60%
Activity [23]: 13.3%
Activity [24]: 37.1%
Activity [26]: Active
Activity [27]: 3.4%
Activity [28]: 402 mm3
Activity [29]: 27.2%
Activity [30]: 7.3%
IC50 [31]: 21 nM
Activity [32]: 10.3%
Activity [33]: inactive
